From US11098038B2, “Imidazole-based anticancer agents and derivatives thereof, and methods of making and using same” (The University of Toledo, priority 2017, dated 2021)

Key:
Assay type in all cases: cell-based
CCRF-CEM = experiment: NCI 60 screen, CCRF-CEM; conditions: Homo sapiens, Leukemia
Description: (§1) The compounds synthesized were tested at the National Cancer Institute (NCI) for anti-proliferative activity in the 60 human tumor cell line assay.

HL-60(TB) = experiment: NCI 60 screen, HL-60(TB); conditions: Homo sapiens, Leukemia
Description: as §1

K-562 = experiment: NCI 60 screen, K-562; conditions: Homo sapiens, K562, Leukemia
Description: as §1

MOLT-4 = experiment: NCI 60 screen, MOLT-4; conditions: Homo sapiens, Leukemia
Description: as §1

RPMI-8226 = experiment: NCI 60 screen, RPMI-8226; conditions: Homo sapiens, Leukemia
Description: as §1

SR = experiment: NCI 60 screen, SR; conditions: Homo sapiens, Leukemia
Description: as §1

A549/ATCC = experiment: NCI 60 screen, A549/ATCC; conditions: Homo sapiens, Non-Small Cell Lung
Description: as §1

EKVX = experiment: NCI 60 screen, EKVX; conditions: Homo sapiens, Non-Small Cell Lung
Description: as §1

HOP-62 = experiment: NCI 60 screen, HOP-62; conditions: Homo sapiens, Non-Small Cell Lung
Description: as §1

HOP-92 = experiment: NCI 60 screen, HOP-92; conditions: Homo sapiens, Non-Small Cell Lung
Description: as §1

NCI-H226 = experiment: NCI 60 screen, NCI-H226; conditions: Homo sapiens, Non-Small Cell Lung
Description: as §1

NCI-H23 = experiment: NCI 60 screen, NCI-H23; conditions: Homo sapiens, Non-Small Cell Lung
Description: as §1

NCI-322M = experiment: NCI 60 screen, NCI-322M; conditions: Homo sapiens, Non-Small Cell Lung
Description: as §1

NCI-460 = experiment: NCI 60 screen, NCI-460; conditions: Homo sapiens, Non-Small Cell Lung
Description: as §1

NCI-H522 = experiment: NCI 60 screen, NCI-H522; conditions: Homo sapiens, Non-Small Cell Lung
Description: as §1

COLO 205 = experiment: NCI 60 screen, COLO 205; conditions: Homo sapiens, Colon
Description: as §1

HCC-2998 = experiment: NCI 60 screen, HCC-2998; conditions: Homo sapiens, Colon
Description: as §1

HCT-116 = experiment: NCI 60 screen, HCT-116; conditions: Homo sapiens, Colon
Description: as §1

HCT15 = experiment: NCI 60 screen, HCT15; conditions: Homo sapiens, HCT-15, Colon
Description: as §1

HT29 = experiment: NCI 60 screen, HT29; conditions: Homo sapiens, HT-29, Colon
Description: as §1

KM12 = experiment: NCI 60 screen, KM12; conditions: Homo sapiens, Colon
Description: as §1

SW-620 = experiment: NCI 60 screen, SW-620; conditions: Homo sapiens, Colon
Description: as §1

SF-268 = experiment: NCI 60 screen, SF-268; conditions: Homo sapiens, CNS
Description: as §1

SF-295 = experiment: NCI 60 screen, SF-295; conditions: Homo sapiens, CNS
Description: as §1

SF-539 = experiment: NCI 60 screen, SF-539; conditions: Homo sapiens, CNS
Description: as §1

SNB-19 = experiment: NCI 60 screen, SNB-19; conditions: Homo sapiens, CNS
Description: as §1

SNB-75 = experiment: NCI 60 screen, SNB-75; conditions: Homo sapiens, CNS
Description: as §1

U251 = experiment: NCI 60 screen, U251; conditions: Homo sapiens, U-251, CNS
Description: as §1

LOX IMVI = experiment: NCI 60 screen, LOX IMVI; conditions: Homo sapiens, Melanoma
Description: as §1

MALME-3M = experiment: NCI 60 screen, MALME-3M; conditions: Homo sapiens, Melanoma
Description: as §1

M14 = experiment: NCI 60 screen, M14; conditions: Homo sapiens, Melanoma
Description: as §1

MDA-MB-435 = experiment: NCI 60 screen, MDA-MB-435; conditions: Homo sapiens, Melanoma
Description: as §1

SK-MEL-2 [1] = experiment: NCI 60 screen, SK-MEL-2 (first line); conditions: Homo sapiens; Melanoma, SK-MEL-2 (first of two lines so named, r37)
Description: as §1

SK-MEL-2 [2] = experiment: NCI 60 screen, SK-MEL-2 (second line); conditions: Homo sapiens; Melanoma, SK-MEL-2 (second of two lines so named, r38)
Description: as §1

SK-MEL-5 = experiment: NCI 60 screen, SK-MEL-5; conditions: Homo sapiens, Melanoma
Description: as §1

UACC-257 = experiment: NCI 60 screen, UACC-257; conditions: Homo sapiens, Melanoma
Description: as §1

UACC-62 = experiment: NCI 60 screen, UACC-62; conditions: Homo sapiens, Melanoma
Description: as §1

IGROV1 = experiment: NCI 60 screen, IGROV1; conditions: Homo sapiens, IGROV-1, Ovarian
Description: as §1

OVCAR-3 = experiment: NCI 60 screen, OVCAR-3; conditions: Homo sapiens, Ovarian
Description: as §1

OVCAR-4 = experiment: NCI 60 screen, OVCAR-4; conditions: Homo sapiens, Ovarian
Description: as §1

OVCAR-5 = experiment: NCI 60 screen, OVCAR-5; conditions: Homo sapiens, Ovarian
Description: as §1

OVCAR-8 = experiment: NCI 60 screen, OVCAR-8; conditions: Homo sapiens, Ovarian
Description: as §1

NCI/ADR-RES = experiment: NCI 60 screen, NCI/ADR-RES; conditions: Homo sapiens, Ovarian
Description: as §1

SK-OV-3 = experiment: NCI 60 screen, SK-OV-3; conditions: Homo sapiens, Ovarian
Description: as §1

786-0 = experiment: NCI 60 screen, 786-0; conditions: Homo sapiens, Renal
Description: as §1

A498 = experiment: NCI 60 screen, A498; conditions: Homo sapiens, Renal
Description: as §1

ACHN = experiment: NCI 60 screen, ACHN; conditions: Homo sapiens, Renal
Description: as §1

RXF393 = experiment: NCI 60 screen, RXF393; conditions: Homo sapiens, RXF 393, Renal
Description: as §1

SN12C = experiment: NCI 60 screen, SN12C; conditions: Homo sapiens, Renal
Description: as §1

TK-10 = experiment: NCI 60 screen, TK-10; conditions: Homo sapiens, Renal
Description: as §1

UO-31 = experiment: NCI 60 screen, UO-31; conditions: Homo sapiens, Renal
Description: as §1

PC-3 = experiment: NCI 60 screen, PC-3; conditions: Homo sapiens, Prostatic
Description: as §1

DU-145 = experiment: NCI 60 screen, DU-145; conditions: Homo sapiens, Prostatic
Description: as §1

MCF7 = experiment: NCI 60 screen, MCF7; conditions: Homo sapiens, Breast
Description: as §1

MDA-MB-231/ATCC = experiment: NCI 60 screen, MDA-MB-231/ATCC; conditions: Homo sapiens, Breast
Description: as §1

HS 578T = experiment: NCI 60 screen, HS 578T; conditions: Homo sapiens, Breast
Description: as §1

BT-549 = experiment: NCI 60 screen, BT-549; conditions: Homo sapiens, Breast
Description: as §1

T-47D = experiment: NCI 60 screen, T-47D; conditions: Homo sapiens, T47D, Breast
Description: as §1

MDA-MB-468 = experiment: NCI 60 screen, MDA-MB-468; conditions: Homo sapiens, Breast
Description: as §1

O=C(Cc1ccc(/C=C/C(=O)c2ncc[nH]2)cc1)Nc1ccc(F)cc1 [Compound 22, (E)-2-(4-(3-(1H-imidazol-2-yl)-3-oxoprop-1-en-1-yl)phenyl)-N-(4-fluorophenyl)acetamide]
GI50 (CCRF-CEM): 1680 nM | GI50 (HL-60(TB)): 1660 nM | GI50 (K-562): 1300 nM | GI50 (MOLT-4): 5740 nM | GI50 (RPMI-8226): 1270 nM | GI50 (SR): 1110 nM | GI50 (A549/ATCC): 6940 nM | GI50 (EKVX): 7460 nM | GI50 (HOP-62): 2640 nM | GI50 (HOP-92): 9110 nM | GI50 (NCI-H226): 9850 nM | GI50 (NCI-H23): 1910 nM | GI50 (NCI-322M): 3350 nM | GI50 (NCI-460): 1720 nM | GI50 (NCI-H522): 3380 nM | GI50 (COLO 205): 4540 nM | GI50 (HCC-2998): 5430 nM | GI50 (HCT-116): 1890 nM | GI50 (HCT15): 1150 nM | GI50 (HT29): 1150 nM | GI50 (KM12): 2100 nM | GI50 (SW-620): 1430 nM | GI50 (SF-268): 5100 nM | GI50 (SF-295): 4740 nM | GI50 (SF-539): 840 nM | GI50 (SNB-19): 1580 nM | GI50 (SNB-75): 1110 nM | GI50 (U251): 1200 nM | GI50 (LOX IMVI): 1070 nM | GI50 (MALME-3M): 7860 nM | GI50 (M14): 5980 nM | GI50 (MDA-MB-435): 4070 nM | GI50 (SK-MEL-2 [1]): 7470 nM | GI50 (SK-MEL-2 [2]): 6260 nM | GI50 (SK-MEL-5): 6060 nM | GI50 (UACC-257): 8670 nM | GI50 (UACC-62): 5920 nM | GI50 (IGROV1): 2660 nM | GI50 (OVCAR-3): 1700 nM | GI50 (OVCAR-4): 9140 nM | GI50 (OVCAR-5): 2600 nM | GI50 (OVCAR-8): 5080 nM | GI50 (NCI/ADR-RES): 7180 nM | GI50 (SK-OV-3): 9380 nM | GI50 (786-0): 1370 nM | GI50 (A498): 8930 nM | GI50 (ACHN): 4820 nM | GI50 (RXF393): 3440 nM | GI50 (SN12C): 2930 nM | GI50 (TK-10): 7890 nM | GI50 (UO-31): 2640 nM | GI50 (PC-3): 2800 nM | GI50 (DU-145): 1190 nM | GI50 (MCF7): 990 nM | GI50 (MDA-MB-231/ATCC): 1830 nM | GI50 (HS 578T): 2330 nM | GI50 (BT-549): 2730 nM | GI50 (T-47D): 3330 nM | GI50 (MDA-MB-468): 970 nM
